Two compounds from publication PMC10180065, “Mechanistic Studies of Arene–Ruthenium(II) Complexes with Carbothioamidopyrazoles as Alternative Cancer Drugs” (Molecules, 2023) can be followed below.

Where only a bound is given, the exact number is not on record here.

The IC50 is the midpoint of a concentration-inhibition curve.

The test system of series [1] is HT29. The series is described as follows: MTT cytotoxicity, HT29. The series is classed as cell-based, human. Particulars: 48 h incubation, read-out: Cytotoxic effect, IC50. On the procedure:
(§1) Cytotoxicity was evaluated against fifteen adherent human cancer cell lines using the MTT test: colorectal adenocarcinoma cells Caco2 (ATCC® HTB-37™), colorectal adenocarcinoma cells HT29 (ATCC® HTB-38™), colon colorectal carcinoma HCT116 (ATCC® CCL-247™), colon adenocarcinoma COLO205 (ATCC® CCL-222™), colorectal adenocarcinoma SW620 (ATCC® CCL-227™), colorectal adenocarcinoma grade IV LoVo (ATCC® CCL-229™), hepatocellular carcinoma Hep 3b (ATCC® HB-8064™), endometrium adenocarcinoma HEC1A (ATCC® HTB-112™), Ishikawa (99040201; Sigma–Aldrich Sigma, St. Louis, MO, USA), cervical adenocarcinoma cells HeLa (ATCC® CCL-2™), lung epithelial carcinoma A549 (ATCC® CRM-CCL-185™), breast epithelial adenocarcinoma cell positive for estrogen and progesterone receptors MCF7 (ATCC® HTB-22™) and negative for expression of estrogen receptor HCC38 (ATCC® CRL-2314™), acute promyelocytic leukemia HL-60 (ATCC® CCL-240™), skin melanoma WM115 (ATCC® CRL-1676™), and 1 suspension cancer cell line: acute lymphoblastic leukemia NALM6 (purchased from the German Collection of Microorganisms and Cell Cultures). HT29, NALM6, HCC-38 and HL-60 cells were cultured in RPMI 1640 medium (Thermo Fisher Scientific, Waltham, MA, USA) supplemented with 10% fetal bovine serum and antibiotic (gentamicin 25 μg ml^−1) (Gibco, Grand Island, New York, NY, USA). For the remaining tumor cell lines, Dulbecco’s minimal essential medium (DMEM, Lonza, Visp, Switzerland) supplemented with 10% fetal bovine serum and antibiotic instead of RPMI 1640 was used. In addition, Human Microvascular Endothelial Cells (HMEC1), which were obtained from the American Type Culture Collection (Manassas, VA, USA), were used as a model of normal cells. HMEC-1 were cultured in MCDB131 medium (Corning Life Sciences, Corning, NY, USA), supplemented with 10% fetal bovine serum, 10 ng/mL Epidermal Growth Factor (Millipore, Burlington, MA, USA) and 10 mM glutamine (Corning Life Sciences). All cells were grown at 37 °C in humidified atmosphere of 5% CO2 in air. The exponential growth of cells was maintained by regular passaging at 90% confluence three times a week using 0.025% trypsin/EDTA (Gibco, Grand Island, New York, NY, USA).
(§2) The cytotoxicity was tested by a standard MTT [3-(4,5-dimethylthiazol-2-yl)-2,5-diphenyltetrazolium bromide] (Sigma, St. Louis, MO, USA) microplate cell viability assay. The anticancer activity of the investigated compounds was evaluated in vitro on the basis of their ability to inhibit the proliferation of various cancer cells. Exponentially growing cells were seeded a day before the experiment into a 96-well microplate (Nunc, Roskilde, Denmark) at a density up to 6–8 × 10^3 cells/mL (depending on the cell line) and exposed to the test compounds at a wide range of concentrations for 48 h. Subsequently, various concentrations of the studied compounds (10^−7–10^−5 M) freshly prepared in DMSO (final concentration of <0.1% DMSO) and diluted with complete culture medium were added. After 48 h incubation, the cells were immediately subjected to a cell viability assay. At this time point, the number of viable cells in each well was estimated by the MTT test. Briefly, 50 µL (5 mg/mL final concentration) of MTT was added to each microplate well. This procedure was then followed by a three- to four-hour incubation at 37 °C. After incubation, MTT solution was replaced with 100 µL DMSO/well, which solubilized the formazan crystals formed by the dehydrogenases of metabolically active cells. Purple formazan absorbance was measured spectrophotometrically at 570 nm.

The test system of series [2] is Colo205. Kind of series: MTT cytotoxicity, Colo205. Format: cell-based, human. The note with it: 48 h incubation, read-out: Cytotoxic effect, IC50. On the procedure: as §1, §2
Series [3] relates to SW620. Kind of series: MTT cytotoxicity, SW620. Particulars: 48 h incubation, read-out: Cytotoxic effect, IC50. Format: cell-based, human. As for the experimental part: as §1, §2
In series [4] the test system is LoVo. The series is described as follows: MTT cytotoxicity, LoVo. The series is classed as cell-based, human. Particulars: 48 h incubation, read-out: Cytotoxic effect, IC50. On the procedure:
as §1, §2

The subject of series [5] is Caco2. Kind of series: MTT cytotoxicity, Caco2. Format: cell-based, human. The note with it: 48 h incubation, read-out: Cytotoxic effect, IC50. As for the experimental part: as §1, §2
The test system of series [6] is Hep 3b. Kind of series: MTT cytotoxicity, Hep 3b. The series is classed as cell-based, human. The note with it: 48 h incubation, read-out: Cytotoxic effect, IC50. On the procedure:
as §1, §2

In series [7] the test system is HEC1A. The series is described as follows: MTT cytotoxicity, HEC1A. Format: cell-based, human. Particulars: 48 h incubation, read-out: Cytotoxic effect, IC50. As for the experimental part:
as §1, §2

The test system of series [8] is Ishikawa. Kind of series: MTT cytotoxicity, Ishikawa. The series is classed as cell-based, human. The note with it: 48 h incubation, read-out: Cytotoxic effect, IC50. As for the experimental part: as §1, §2
Series [9] relates to Hela. Kind of series: MTT cytotoxicity, Hela. Format: cell-based, human. The note with it: 48 h incubation, read-out: Cytotoxic effect, IC50. As for the experimental part:
as §1, §2

Series [10] has as its system A549. The series is described as follows: MTT cytotoxicity, A549. The series is classed as cell-based, human. Particulars: 48 h incubation, read-out: Cytotoxic effect, IC50. On the procedure: as §1, §2
For series [11], the system named is HCC38. The series is described as follows: MTT cytotoxicity, HCC38. Format: cell-based, human. Particulars: 48 h incubation, read-out: Cytotoxic effect, IC50. On the procedure: as §1, §2
Series [12] has as its system MCF7. The series is described as follows: MTT cytotoxicity, MCF7. The series is classed as cell-based, human. The note with it: 48 h incubation, read-out: Cytotoxic effect, IC50. On the procedure:
as §1, §2

For series [13], the system named is WM115. Kind of series: MTT cytotoxicity, WM115. Format: cell-based, human. The note with it: 48 h incubation, read-out: Cytotoxic effect, IC50. On the procedure: as §1, §2
The test system of series [14] is NALM6. The series is described as follows: MTT cytotoxicity, NALM6. Format: cell-based, human. The note with it: 48 h incubation, read-out: Cytotoxic effect, IC50. On the procedure:
as §1, §2

Series [15] has as its system HL60. Kind of series: MTT cytotoxicity, HL60. Format: cell-based, human. The note with it: 48 h incubation, read-out: Cytotoxic effect, IC50. As for the experimental part:
as §1, §2

For series [16], the system named is human microvascular endothelial cell line HMEC1. Kind of series: MTT cytotoxicity, normal endothelial cells HMEC1. Format: cell-based. The note with it: for IC50: HMEC1 normal endothelial cells, 48 h incubation, read-out: Cytotoxic effect, IC50; for IC50 for HMEC-1 higher than for cancer cells (selectivity): HMEC-1 vs cancer cells. As for the experimental part:
as §1, §2

A short description of series [17]: Lipophilicity by RP-TLC. The series is classed as physicochemical. The note with it: eluent AcCN: H2O at 30–70% v/v, 22 °C. More on the design: key: RM = log(1/Rf − 1), Rf = a/b. On the procedure:
All the experimental solutions of standard substances (0.1 mg/mL) were prepared by dissolving ligands (1a–1d) or ruthenium complexes (2a/3a–2d/3d) in ethanol. Commercially-available octadecyl-modified silica aluminum sheets (20 × 20 cm) were cut into 5 × 10 cm plates. The plates were manually spotted with 1.0 μL of freshly prepared solutions using automatic pipets, 5 mm from each edge. The chromatograms for all compounds (1a/2a/3a–1d/2d/3d) were developed using a horizontal developing chamber and the solvent migration distance was about 4.5 cm. The plates were visually inspected under UV light at 254 nm. Each zone was clearly marked and its distance was manually measured. The RP-TLC analyses of lipophilicity were performed at ambient temperature (22 °C). In this experiment, all measurements were performed in triplicate and the obtained results were used in further calculations. The acetonitrile and water mixtures for ligands 1a–1d and arene–ruthenium(II) complexes 2a/3a–2d/3d were used as mobile phases, with […] content increasing in the range of 30–70% v/v, at 5% intervals. Values of the chromatographic retention coefficient Rf (as shown Formula (1)) and RM (as shown Formula (2)), based on received chromatograms, were calculated and converted as follows:(1) Rf=a/b (2) RM=log1/Rf−1

For series [18], the system named is PARP1. The series is described as follows: Cleaved PARP level (ELISA), WM115 cells. Format: cell-based, human. Particulars: WM115, 24 h at IC50 concentration. As for the experimental part: Cells (1 × 10^6) were seeded in 35 mm dishes and cultured for 24 h in the appropriate medium until they reached log phase growth. […] After incubation, the medium was removed, the cells were washed with PBS solution and trypsinized. The harvested cell pellet was lysed in RIPA buffer (50 mM Tris-HCL, pH 8.0, with 150 mM sodium chloride, 1.0% Igepal CA-630 (NP-40), 0.5% sodium deoxychlorate, and 0.1% sodium dodecyl sulfate) with protease inhibitor (phenylmethylsulfonyl fluoride) (Sigma-Aldrich Sigma, St. Louis, MO, USA). The level of cleaved PARP was estimated using the PARP Cleaved [214/215] ELISA kit (Invitrogen, Waltham, MA, USA) according to the protocol described in the manufacturer’s instructions.

For series [19], the system named is HEC1A. The series is described as follows: Mitochondrial potential, JC-1 probe, HEC1A. Format: cell-based, human. Particulars: IC50 concentration. As for the experimental part:
Cells (10 × 10^3/well) were seeded in black 96-well plates and grown for 24 h to reach the log phase. […] After removing the medium, the cell monolayer was washed twice with PBS solution and 50 μL of the JC-1 probe at a final concentration of 5 μM was added to the wells of the plate. The cells were incubated with the dye for 30 min in a CO2 incubator. Subsequently, the changes in the fluorescence of monomers (λex = 485 nm and λem = 525 nm) and aggregates (λex = 530 nm and λem = 590 nm) using JC-1 were monitored. The results of the tested trials were presented as the ratio of fluorescence of aggregates and JC1 monomers as a percentage of control values, which was assumed to be 100%.

Regarding `CCc1cc(CC)n(C(N)=S)n1.Cc1ccc(C(C)C)cc1.F[P-](F)(F)(F)(F)F.[Cl-].[Ru+2]` [3b], the IC50 came out at 123 ± 3.7 µM in series [1]; 91.6 ± 1.6 µM in series [2]; 78.8 ± 7.4 µM in series [3]; 99.1 ± 9.4 µM in [4]; 82.4 ± 8.4 µM in [5]; 62.4 ± 2.7 µM in series [6]. For the same compound, the IC50 in series [7] was 40.1 ± 2.1 µM; in series [8] it was 121 ± 3.7 µM; in series [9], 101 ± 6.7 µM; in [10], 162 ± 7.9 µM; in [11], greater than 200 µM; in [12] it was 132 ± 5.3 µM. The IC50 was 51.7 ± 5.3 µM in series [13], 18.5 ± 2.3 µM in [14], 52.9 ± 2.1 µM in series [15] and 135 ± 6.7 µM in series [16]. In series [16], the “IC50 for HMEC-1 higher than for cancer cells (selectivity)” value is given as 3–5 times. Further, in series [17], the “Lipophilicity, RM” value is given as 2.73. Also, the “increase in level of PARP1 degradation compared to controls” value in [18] is roughly 140%. Moreover, the “decrease in mitochondrial potential (JC-1)” value in series [19] is roughly 50%.
For the compound `Cc1cc(C)n(C(N)=S)n1.Cc1ccc(C(C)C)cc1.F[P-](F)(F)(F)(F)F.[Cl-].[Ru+2]` [3a], the IC50 in series [1] was 123 ± 3.9 µM; in [2], 59.6 ± 3.4 µM; in series [3], 63.9 ± 2.7 µM; in series [4] it was 127 ± 3.7 µM; in [5], 107 ± 8.4 µM; in series [6], 55.3 ± 2.6 µM. Also, the 50% inhibitory concentration (IC50) in series [7] is 77.2 ± 4.4 µM; in series [8] it was greater than 200 µM; in series [9], 98.7 ± 7.4 µM; in [10], greater than 200 µM; in [11], greater than 200 µM; in series [12] it was greater than 200 µM. The IC50 in series [13] is 64.1 ± 5.1 µM; in [14] it was 46.1 ± 5.1 µM; in series [15], 79.7 ± 7.2 µM; in [16], greater than 200 µM. Further, the “IC50 for HMEC-1 higher than for cancer cells (selectivity)” value in [16] is reported as 3–5 times. For the same compound, the “Lipophilicity, RM” value in [17] is listed as 2.55.
